Marks after values point to notes of the source that are not given here.

Assay [1] relates to mouse peritoneal macrophages. The experiment in a line: Phagocytosis test of chicken red blood cell. It is filed as in vivo, Kunming mice. The following applies: intragastric once per day for four weeks, 300 mg/kg (Mannatide 20 mg/kg); for Phagotrophic percentage (%, X ± SD): chicken red blood cells phagocytized by 100 macrophages. As for the experimental part: Kunming mice were randomly divided into seven groups according to gender and body weight, with 12 mice in each group. As the dose design, all groups received one intragastric administration per day at a dose of 0.4 ml/20 g for successive four weeks. Mice were weighed for two times per week, to adjust the drug dosage. 30 minutes after final administration, each mouse in each group was injected intraperitoneally with 5% chicken erythrocyte suspension at a dose of 1.0 ml/mouse. Six hours after injection, animals were sacrificed by cervical dislocation, and received 2 ml physiological saline via peritoneal injection, while the abdomen of mice was gently massaged. Then, one pin hole was cut in the center of peritoneum, and washing water in peritoneal cavity was extracted, dropped on microscope slide, and cultured for 30 min in incubator at 37° C. The solution was washed with normal saline, fixed using methanol, and dyed by Giemsa staining. The numbers of chicken red blood cell phagocytized by 100 macrophages were observed under oil immersion lens. The phagotrophic percentage and the phagotrophic index were calculated according to the following formula, and results were shown in Table 15. [formula] [formula]

Another assay deals with mouse macrophages. The experiment in a line: Carbon granules clearance test. The settings on record: once per day for four weeks, 300 mg/kg (Mannatide 20 mg/kg); for α value (X ± SD): corrected phagotrophic index; for K value (X ± SD): Indian ink via vena caudalis, blood at 1 and 5 min. It is filed as in vivo, Kunming mice. As for the experimental part:
Kunming mice were randomly divided into seven groups according to gender and body weight, with 10 mice in each group. As the dose design in Table 14, all groups were administrated once per day at a dose of 0.4 ml/20 g for successive four weeks. Mice were weighed for two times per week, to adjust the drug dosage. One hour after final administration, each mouse in each group was injected with Indian ink [(1:4)0.1 ml·10 g^−1] via vena caudalis. […] After animals were sacrificed by cervical dislocation, liver and spleen were collected and weighed, to calculate the phagotrophic index K=(log OD^1−log OD2)/(t2−t1) and correct the phagotrophic index α=[body weight/(liver weight+spleen weight)]×K^1/3.

For the next assay, the system named is oxygen radicals. In words: Metabolism of in vivo oxygen radicals (serum SOD activity, MDA content). More on the design: species or system C57BL/6 mice. The following applies: blood serum, intragastric once per day for four weeks, 300 mg/kg (IFNa-2b 300 0000 IU). As for the experimental part:
Experimental methods: C57BL/6 mice were randomly divided to eight groups as body weight, with 10 mice in each group. According to the dose design in Table 14, all groups received one intragastric administration per day at a dose of 0.4 ml/20 g for successive four weeks. Mice were weighed for two times per week, to adjust the drug dosage. On the last day of experiment, blood samples were drawn from femoral artery of animals and centrifuged to collect blood serum. Using TBA colorimetric method and xanthine oxidase method, application of sample was performed according to procedures of kit instructions, and absorbance values were measured at wavelengths of 532 nm and 550 nm using UV2300 Ultraviolet spectrophotometer. MDA content and SOD activity were calculated, respectively.

On to `O=C(/C=C/c1ccc(O)c(O)c1)O[C@@H]1C[C@](O)(C(=O)O)C[C@@H](O)[C@H]1O` [Chologenic acid, Chlorogenic acid], for which, in assay [1], the “Phagotrophic index (X ± SD)” value worked out at 0.52 ± 0.07 and the “Phagotrophic percentage (%, X ± SD)” value turned out to be 36.58 ± 4.50 %. For the same compound, in the assay on mouse macrophages, the “α value (X ± SD)” value was 3.94 ± 1.05 and the “K value (X ± SD)” value is on record as 0.019 ± 0.011. Besides, in the assay with oxygen radicals (TBA colorimetric method), the “MDA(nmol/L) (x ± s)” value was 27.14 ± 3.41 nmol/L. Besides, in the assay with oxygen radicals (xanthine oxidase method), the “SOD(U/L) (x ± s)” value was 218.73 ± 25.32 ^ U/L.

Consider Mannatide [reference compound], for which, in assay [1], the “Phagotrophic index (X ± SD)” value is reported as 0.57 ± 0.05***^ΔΔ and the “Phagotrophic percentage (%, X ± SD)” value is 40.32 ± 2.25***^ΔΔ %. Further, in the assay on mouse macrophages, the “α value (X ± SD)” value was determined as 4.43 ± 1.06 and the “K value (X ± SD)” value is 0.019 ± 0.013.

The values above are taken from patent US10238702B2, “Pharmaceutical composition, preparation method therefor and use thereof” (SICHUAN JIUZHANG BIOLOGICAL SCIENCE AND TECHNOLOGY CO., LTD, priority 2013, dated 2019).
